From US9980943B2, “Methods of treating muscular dystrophy” (BOARD OF REGENTS OF THE NEVADA SYSTEM OF HIGHER EDUCATION, …, priority 2013, dated 2018) come the findings set out here.

Holding throughout (assay type): cell-based, mouse
The test system of assay [1] is α7 integrin (LacZ reporter in α7βgal+/− myoblasts). Nature of the assay: Myoblast α7+/LacZ integrin FDG assay (Burkin assay in myoblasts, 96-well). To be noted: 96-well; for Burkin Assay in Myoblasts, signal relative to DMSO: α7+/LacZ myoblasts; for Burkin Assay in Myoblasts, value relative to DMSO: SU9516 analogs, N=3-6.
The subject of assay [2] is β-galactosidase in CMV-LacZ C2C12 myoblasts. The experiment in a line: CMV-LacZ secondary screen in C2C12 myoblasts (β-Gal stabilizing assay). To be noted: for CMV-LACZ in Myoblasts (β-galactosidase activity relative to DMSO): CMV-LacZ C2C12 myoblasts; for CMV-LACZ in Myoblasts, value relative to DMSO: SU9516 analogs, C2C12 CMV-LacZ, N=2. An outline of the steps:
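A secondary screen identifies compounds that stabilize β-gal independently of the native promoter, using CMV-LacZ C2C12 cells. Curves span 0.5–40 μM at six levels, in duplicate.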

The subject of assay [3] is β-galactosidase in CMV-LacZ C2C12 myotubes. Nature of the assay: CMV-LacZ secondary screen in C2C12 myotubes (β-Gal stabilizing assay). To be noted: for CMV-LACZ in Myotubes, signal relative to DMSO: C2C12 CMV-LacZ myotubes, fold relative to DMSO; for CMV-LACZ in Myotubes, value relative to DMSO: SU9516 analogs, C2C12 CMV-LacZ, N=2. An outline of the steps: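 CMV-LacZ C2C12 line (clonal, FDG-screened); myoblasts/myotubes dosed 0.5–40 μM (0.5, 1, 5, 10, 20, 40 μM); n=2 per point; β-gal stabilization read-out.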

The subject of assay [4] is α7 integrin (LacZ reporter in α7+/LacZ myotubes). Nature of the assay: Myotube α7 integrin FDG assay (Burkin assay in myotubes, 96-well). The following applies: for Burkin Assay in Myotubes, value relative to DMSO: SU9516 analogs, 96-well, N=3-6.

Turning to `c1ccc(-c2cn3c4c(sc3n2)CCCC4)cc1` [MLS002636056-01], the “Burkin Assay in Myoblasts, signal relative to DMSO” value in assay [1] (0.5 uM) turned out to be 1.157; in assay [1] (1 uM) it was 1.066; in assay [1] (5 uM), 1.037; in assay [1] (10 uM) it was 1.224; in assay [1] (20 uM), 0.9377; in assay [1] (40 uM), 0.8203. Besides, the “CMV-LACZ in Myoblasts (β-galactosidase activity relative to DMSO)” value in assay [2] (0.5 uM) is given as 0.9392; in assay [2] (1 uM), 0.9021; in assay [2] (5 uM), 1.0394; in assay [2] (10 uM) it was 1.2571; in assay [2] (20 uM) it was 1.1173; in assay [2] (40 uM), 0.8270. For the same compound, the “CMV-LACZ in Myotubes, signal relative to DMSO” value in assay [3] (0.5 uM) was found to be 0.9855; in assay [3] (1 uM), 1.2636; in assay [3] (5 uM) it was 1.0269; in assay [3] (10 uM), 1.1613; in assay [3] (20 uM), 1.4090; in assay [3] (40 uM) it was 1.1160. The “Burkin Assay in Myotubes, α7 integrin LacZ reporter signal relative to DMSO” value in assay [4] (0.5 uM) stood at 0.9619; in assay [4] (1 uM) it was 1.089; in assay [4] (5 uM), 0.9203; in assay [4] (10 uM), 1.027; in assay [4] (20 uM), 0.9045; in assay [4] (40 uM) it was 1.167.

Regarding `CC1Cc2ccccc2N1C(=O)CSc1nnc(N)s1` (stereo not drawn) [MLS001160611-01], the “Burkin Assay in Myoblasts, signal relative to DMSO” value was found to be 1.1058 in assay [1] (0.5 uM); 0.9767 in assay [1] (1 uM); 1.004 in assay [1] (5 uM); 1.115 in assay [1] (10 uM); 0.9749 in assay [1] (20 uM); 0.9267 in assay [1] (40 uM). In addition, the “CMV-LACZ in Myoblasts (β-galactosidase activity relative to DMSO)” value came to 1.2070 in assay [2] (0.5 uM); 0.8157 in assay [2] (1 uM); 1.0117 in assay [2] (5 uM); 1.0340 in assay [2] (10 uM); 0.8144 in assay [2] (20 uM); 1.0389 in assay [2] (40 uM). Also, the “CMV-LACZ in Myotubes, signal relative to DMSO” value is listed as 0.9762 in assay [3] (0.5 uM); 1.2419 in assay [3] (1 uM); 0.8306 in assay [3] (5 uM); 0.9661 in assay [3] (10 uM); 1.0240 in assay [3] (20 uM); 0.9190 in assay [3] (40 uM). For the same compound, the “Burkin Assay in Myotubes, α7 integrin LacZ reporter signal relative to DMSO” value is on record as 0.9452 in assay [4] (0.5 uM); 0.8628 in assay [4] (1 uM); 1.006 in assay [4] (5 uM); 1.169 in assay [4] (10 uM); 0.8397 in assay [4] (20 uM); 1.24 in assay [4] (40 uM).

With `Cc1ccc2c(c1)/C(=C/c1ccc(F)cc1)C(=O)N2` [MLS001202366-01], the “Burkin Assay in Myoblasts, value relative to DMSO” value came to 1.007 in assay [1] (0.5 uM); 0.9698 in assay [1] (1 uM); 0.8762 in assay [1] (5 uM); 0.7458 in assay [1] (10 uM); 0.4873 in assay [1] (20 uM); 0.2456 in assay [1] (40 uM). The “CMV-LACZ in Myoblasts, value relative to DMSO” value came out at 0.7656 in assay [2] (0.5 uM); 0.6431 in assay [2] (1 uM); 1.0533 in assay [2] (5 uM); 1.3214 in assay [2] (10 uM); 0.7222 in assay [2] (20 uM); 0.3322 in assay [2] (40 uM). Besides, the “CMV-LACZ in Myotubes, value relative to DMSO” value in assay [3] (0.5 uM) worked out at 0.9844; in assay [3] (1 uM), 1.0570; in assay [3] (5 uM) it was 0.8072; in assay [3] (10 uM), 0.9927; in assay [3] (20 uM), 0.8329; in assay [3] (40 uM), 1.0847. Also, the “Burkin Assay in Myotubes, value relative to DMSO” value worked out at 1.114 in assay [4] (0.5 uM); 1.099 in assay [4] (1 uM); 1.089 in assay [4] (5 uM); 0.9194 in assay [4] (10 uM); 0.5272 in assay [4] (20 uM); 0.5105 in assay [4] (40 uM).

For the compound `O=C(O)c1csc(-c2cccs2)n1` [MLS000760876-01], the “Burkin Assay in Myoblasts, signal relative to DMSO” value in assay [1] (0.5 uM) is 1.0287; in assay [1] (1 uM) it was 0.9856; in assay [1] (5 uM), 1.812; in assay [1] (10 uM), 0.9113; in assay [1] (20 uM), 1.102; in assay [1] (40 uM), 0.9504. In addition, the “CMV-LACZ in Myoblasts (β-galactosidase activity relative to DMSO)” value in assay [2] (0.5 uM) is reported as 0.9069; in assay [2] (1 uM), 1.0546; in assay [2] (5 uM), 0.8293; in assay [2] (10 uM), 0.8973; in assay [2] (20 uM), 0.9396; in assay [2] (40 uM), 0.8504. Moreover, the “CMV-LACZ in Myotubes, signal relative to DMSO” value in assay [3] (0.5 uM) is given as 1.0248; in assay [3] (1 uM) it was 1.1010; in assay [3] (5 uM), 1.1074; in assay [3] (10 uM), 0.9789; in assay [3] (20 uM) it was 0.9482; in assay [3] (40 uM), 1.2565. Also, the “Burkin Assay in Myotubes, α7 integrin LacZ reporter signal relative to DMSO” value in assay [4] (0.5 uM) is 1.2427; in assay [4] (1 uM), 1.256; in assay [4] (5 uM), 1.249; in assay [4] (10 uM) it was 0.9755; in assay [4] (20 uM) it was 0.8634; in assay [4] (40 uM), 0.8993.

Take `COCCSc1ccccc1C(=O)Nc1cc(C)cc(C)c1` [MLS000675441-01]: the “Burkin Assay in Myoblasts, signal relative to DMSO” value in assay [1] (0.5 uM) is 0.9397; in assay [1] (1 uM), 0.8764; in assay [1] (5 uM), 1.044; in assay [1] (10 uM), 1.248; in assay [1] (20 uM), 0.9015; in assay [1] (40 uM), 0.8996. Besides, the “CMV-LACZ in Myoblasts (β-galactosidase activity relative to DMSO)” value in assay [2] (0.5 uM) was 1.0332; in assay [2] (1 uM) it was 0.9289; in assay [2] (5 uM) it was 0.8800; in assay [2] (10 uM), 0.8690; in assay [2] (20 uM), 0.8656; in assay [2] (40 uM), 0.7437. In addition, the “CMV-LACZ in Myotubes, signal relative to DMSO” value is reported as 1.0074 in assay [3] (0.5 uM); 1.1032 in assay [3] (1 uM); 1.0460 in assay [3] (5 uM); 1.0337 in assay [3] (10 uM); 0.9578 in assay [3] (20 uM); 0.9822 in assay [3] (40 uM). The “Burkin Assay in Myotubes, α7 integrin LacZ reporter signal relative to DMSO” value in assay [4] (0.5 uM) is reported as 0.8552; in assay [4] (1 uM), 1.071; in assay [4] (5 uM), 0.9591; in assay [4] (10 uM), 1.119; in assay [4] (20 uM) it was 0.7476; in assay [4] (40 uM), 0.7168.
